{"source": "patent US9968631B2", "about": "“Method for treatment of pulmonary fibrosis” (Galectin Therapeutics, Inc., priority 2013, dated 2018)", "key": {"[1]": {"system": "bleomycin-induced pulmonary fibrosis in C57Bl/6 mice", "assay": "Late treatment of pulmonary fibrosis induced by bleomycin in C57Bl/6 mice", "format": "in vivo, mouse", "details": "for lung pathology with trichrome stain (fibrosis): FIG. 14; for lung pathology with H & E (fibrosis): FIG. 15; for overall antifibrotic treatment effect: GM-CT-01 120 mg/kg, GR-MD-02 60 mg/kg IV days 10, 13, 16, 20; for Modified Ashcroft Index score vs vehicle: change did not reach significance, FIG. 11; for general fibrosis score vs vehicle: differences did not reach statistical significance, FIG. 12; for Inflammation score vs vehicle: differences not statistically significant, FIG. 13; for percent of fibrotic lung (percent of lung affected): not statistically significant", "experimental": "In these experiments, treatment was initiated after the time when the inflammatory reaction is known to have subsided and the process is one of primarily fibrogenesis. Pulmonary fibrosis was induced in animals using bleomycin at 2.25 U/kg at day 0 as described above. Animals were treated using a GM compound intravenously (GM-CT-01) or GA-RG compound intravenously (GR-MD-02) as described in Table 2.\nAnimals were euthanized on Day 21 and the lungs were weighed. Data shown in FIG. 9 represent group means and standard error of the means.\nThe total lung hydroxyproline content was measured. Data shown in FIG. 10 represent group mean and expressed as microgram of hydroxyproline per mg of lung tissue."}, "[2]": {"system": "bleomycin-induced pulmonary fibrosis in C57Bl/6 mice", "assay": "Early treatment of pulmonary fibrosis induced by bleomycin in C57Bl/6 mice", "format": "in vivo, mouse", "details": "for lung weight vs vehicle-treated mice / total lung hydroxyproline content vs vehicle-treated mice: Day 21, GM-CT-01 120 mg/kg; for lung weight vs vehicle-treated mice: GR-MD-02 60 mg/kg IV days -1, 2, 6, 9, 13, 16, 20, FIG. 2; for total lung hydroxyproline content vs vehicle-treated mice / Modified Ashcroft Index score, difference vs vehicle, p (unpaired t-test): GR-MD-02 60 mg/kg IV; for lung pathology with trichrome stain (fibrosis): FIG. 7; for Modified Ashcroft Index Score compared to the vehicle group: histologic analysis; for general fibrosis score, difference vs vehicle, p (unpaired t-test) / Inflammation score, difference vs vehicle, p (unpaired t-test) / Modified Ashcroft Index score, difference vs vehicle, p (unpaired t-test): outliers removed; for general fibrosis score, difference vs vehicle, p (unpaired t-test): FIG. 5; for Inflammation score, difference vs vehicle, p (unpaired t-test): FIG. 6; for Modified Ashcroft Index score, difference vs vehicle, p (unpaired t-test): GM-CT-01 120 mg/kg, FIG. 4", "experimental": "Instillation of bleomycin in the trachea induces changes similar to diffuse pulmonary fibrosis and/or fibrosing alveolitis in humans. There is an increase in deposition and net synthesis of collagen in the lung with this model.\nThis model can be used to evaluate therapy started in the inflammatory phase of the belomycin insult (started<7 day after bleomycin) or after the inflammatory phase and during fibrogenesis (started>7 day after bleomycin). In this example, early therapy was evaluated.\nThe GM (GM-CT-01) and GA-RG (GR-MD-02) compounds were evaluated as preventative therapy in this mouse model.\nPulmonary fibrosis was induced in animals using intra-tracheal instillation of bleomycin at 2.25 U/kg. Animals were treated using a GM compound (GM-CT-01) or GA-RG compound (GR-MD-02) delivered by intravenous infusion as described in Table 1.\nAnimals were euthanized on Day 21 and the lungs were weighed. Data shown in FIG. 2 represent group means and SEM. Statistical comparison among all groups was performed using one-way ANOVA with Newman-Keuls multiple comparison test.\nAfter euthanasia, the total lung hydroxyproline content was measured. Data shown in FIG. 3 represent group mean and SEM and expressed as microgram of hydroxyproline per mg of lung tissue. Statistical comparison to the “vehicle+Bleomycin” group was performed using one-way ANOVA with Holm-Sidak's multiple comparison test."}, "[3]": {"details": "comparison in the experience of the laboratory"}}, "note": "Entries after “also recorded” stand apart in the source; their conditions may differ."}
{"substance": "1,4-β-D-Galactomannan [GM-CT-01]", "values": [{"measurement": "total lung hydroxyproline content (in words)", "setting": "[1]; Day 21, GM-CT-01 120 mg/kg IV days 10, 13, 16, 20, compared with GR-MD-02, FIG. 10", "result": "less of a decrease"}, {"measurement": "lung pathology with trichrome stain (fibrosis)", "setting": "[1]", "result": "less effect"}, {"measurement": "lung pathology with H & E (fibrosis)", "setting": "[1]", "result": "some reduction in the fibrosis"}, {"measurement": "overall antifibrotic treatment effect", "setting": "[1]", "result": "effective at reducing pulmonary fibrosis; also recorded: more modest positive treatment effect"}, {"measurement": "Modified Ashcroft Index score vs vehicle", "setting": "[1]", "result": "little change"}, {"measurement": "general fibrosis score vs vehicle", "setting": "[1]", "result": "reduction in the fibrosis score"}, {"measurement": "Inflammation score vs vehicle", "setting": "[1]", "result": "no change"}, {"measurement": "percent of fibrotic lung (percent of lung affected)", "setting": "[1]", "result": "notably reduced"}, {"measurement": "lung weight vs vehicle-treated mice", "setting": "[2]", "result": "significantly reduce lung weight; also recorded: significant reduction in mean lung weight; also recorded: markedly reduce lung weight"}, {"measurement": "total lung hydroxyproline content vs vehicle-treated mice", "setting": "[2]; FIG. 3", "result": "reduce lung hydroxyproline content; also recorded: significant reduction; also recorded: markedly reduce"}, {"measurement": "lung pathology with trichrome stain (fibrosis)", "setting": "[2]", "result": "effective at reducing fibrosis"}, {"measurement": "results compared to pirfenadone", "setting": "[2]; [3]", "result": "superior to the results using pirfenadone"}, {"measurement": "results compared to treatment with anti-TGFbeta", "setting": "[2]; [3]", "result": "superior to treatment with anti-TGFbeta"}, {"measurement": "Modified Ashcroft Index Score compared to the vehicle group", "setting": "[2]", "result": "significant reduction"}, {"measurement": "general fibrosis score, difference vs vehicle, p (unpaired t-test)", "setting": "[2]", "result": 0.0979}, {"measurement": "Inflammation score, difference vs vehicle, p (unpaired t-test)", "setting": "[2]", "result": 0.0544}, {"measurement": "Modified Ashcroft Index score, difference vs vehicle, p (unpaired t-test)", "setting": "[2]", "result": 0.0199}]}
{"substance": "galactoarabino-rhamnogalacturonate [GR-MD-02]", "values": [{"measurement": "lung weight vs control animals", "setting": "[1]; Day 21, GR-MD-02 60 mg/kg IV days 10, 13, 16, 20, FIG. 9", "result": "decreased lung weight of the GR-MD-02 treated group as compared to control animals, this difference did not reach statistical significance"}, {"measurement": "reduction of the increase in hydroxyproline", "setting": "[1]; Day 21, GR-MD-02 60 mg/kg IV days 10, 13, 16, 20, did not reach significance, FIG. 10", "result": 50, "unit": "%"}, {"measurement": "lung pathology with trichrome stain (fibrosis)", "setting": "[1]", "result": "effective at reducing fibrosis"}, {"measurement": "lung pathology with H & E (fibrosis)", "setting": "[1]", "result": "marked decrease in fibrous tissue"}, {"measurement": "overall antifibrotic treatment effect", "setting": "[1]", "result": "effective at reducing pulmonary fibrosis; also recorded: strongest anifibrotic effect; also recorded: more effective than GM-CT-01"}, {"measurement": "Modified Ashcroft Index score vs vehicle", "setting": "[1]", "result": "reduction in the Aschroft score"}, {"measurement": "general fibrosis score vs vehicle", "setting": "[1]", "result": "reduction in the fibrosis score"}, {"measurement": "Inflammation score vs vehicle", "setting": "[1]", "result": "reduction in inflammation score"}, {"measurement": "percent of fibrotic lung (percent of lung affected)", "setting": "[1]", "result": "tended to have reduced percent of fibrotic lung"}, {"measurement": "lung weight vs vehicle-treated mice", "setting": "[2]", "result": "significantly reduce lung weight; also recorded: significant reduction in mean lung weight; also recorded: markedly reduce lung weight"}, {"measurement": "total lung hydroxyproline content vs vehicle-treated mice", "setting": "[2]; FIG. 3", "result": "significant reduction; also recorded: markedly reduce"}, {"measurement": "total lung hydroxyproline content vs vehicle-treated mice", "setting": "[2]; FIG. 3, listed as GA-MD-02", "result": "reduce lung hydroxyproline content"}, {"measurement": "lung pathology with trichrome stain (fibrosis)", "setting": "[2]", "result": "effective at reducing fibrosis"}, {"measurement": "results compared to pirfenadone", "setting": "[2]; [3]", "result": "superior to the results using pirfenadone"}, {"measurement": "Modified Ashcroft Index Score compared to the vehicle group", "setting": "[2]", "result": "significant reduction"}, {"measurement": "general fibrosis score, difference vs vehicle, p (unpaired t-test)", "setting": "[2]", "result": 0.0206}, {"measurement": "Inflammation score, difference vs vehicle, p (unpaired t-test)", "setting": "[2]", "result": 0.0508}, {"measurement": "Modified Ashcroft Index score, difference vs vehicle, p (unpaired t-test)", "setting": "[2]", "result": 0.0112}]}
